Measurements reported in publication PMC3834954, “Design, Synthesis and in Vitro Degradation of a Novel Co-Drug for the Treatment of Psoriasis” (Pharmaceutics, 2013).

Test system: porcine liver esterase (PLE)
Assay: HPLC of naproxen release, initial rates, Lineweaver-Burk
Format: biochemical, Sus scrofa
Details: PBS, 5% acetonitrile, 25 °C, 120 IU/mL PLE, 29-91 μM substrate; ester hydrolysis

Km: 65.1 ± 0.99 µM
Structure (SMILES): COc1ccc2cc(C(C)C(=O)Oc3cccc4c3C(=O)c3c(O)cccc3C4)ccc2c1 (stereo not shown) [compound 8, 8-Hydroxy-9-oxo-9,10-dihydroanthracen-1-yl 2-(6-methoxynaphthalen-2-yl)propanoate]
